Source: patent US20240122180A1, “FUNGICIDAL HALOMETHYL KETONES AND HYDRATES AND THEIR MIXTURES” (FMC Corporation, priority 2020, published 2024)

How the values were obtained:
[1] = test system: Phakopsora pachyrhizi (the causal agent of Asian soybean rust); test: Test A: preventive spray on soybean seedlings, visual disease rating (100 = 100% control; * 50 ppm, ** 10 ppm, *** 250 ppm); format: in vivo; conditions: 100 = 100% disease control
Excerpt: (§1) General protocol for preparing test suspensions for Tests A-E: the test compounds were first dissolved in acetone in an amount equal to 3% of the final volume and then suspended at the desired concentration (in ppm) in acetone and purified water (50/50 mix by volume) containing 250 ppm of the surfactant […] (polyhydric alcohol esters). The resulting test suspensions were then used in Tests A-E.
The test solution was sprayed to the point of run-off on soybean seedlings. The following day the seedlings were inoculated with a spore suspension of Phakopsora pachyrhizi (the causal agent of Asian soybean rust) and incubated in a saturated atmosphere at 22° C. for 24 h, and then moved to a growth chamber at 22° C. for 8 days, after which time visual disease ratings were made.
(§2) Results for Tests A-E are given in Table A. In the Table, a rating of 100 indicates 100% disease control and a rating of 0 indicates no disease control (relative to the controls). An asterisk “*” or a double asterisk “**” or a triple asterisk “***” next to the rating value indicates a 50 ppm, 10 ppm and 250 ppm test suspension was used, respectively. A dash (-) indicates the compound was not tested.

[2] = test system: Puccinia recondita f. sp. tritici (the causal agent of wheat leaf rust); test: Test B: preventive spray on wheat seedlings, disease rating (100 = 100% control; * 50 ppm, ** 10 ppm, *** 250 ppm); format: in vivo; conditions: 100 = 100% disease control
Excerpt: as §1
The test solution was sprayed to the point of run-off on wheat seedlings. The following day the seedlings were inoculated with a spore suspension of Puccinia recondita f. sp. tritici (the causal agent of wheat leaf rust) and incubated in a saturated atmosphere at 20° C. for 24 h, and then moved to a growth chamber at 20° C. for 6 days, after which time disease ratings were made.
as §2

[3] = 50 ppm test suspension, 0 = no control
[4] = 10 ppm test suspension, soybean seedlings
[5] = 10 ppm test suspension, wheat seedlings
[6] = 10 ppm test suspension, 0 = no control

Structure (SMILES): CCOC(=O)c1cnn(Cc2ccc(OC)c(O/C=C(\OCC)C(F)(F)F)c2)c1 [compound 408]
- Test A disease control rating [1, 3]: 44%
- Test B disease control rating [2, 3]: 0%

Structure (SMILES): CCCC(=O)N(Cc1ccc(OCC2(C(F)(F)F)OCCO2)cc1)OC [compound 237]
- Test A disease control rating [1, 4]: 97%
- Test B disease control rating [2, 5]: 0%

Structure (SMILES): CCO/C(=C\Oc1ccc(C(=O)NC)cc1)C(F)(F)F [compound 105]
- Test A disease control rating [1, 4]: 0%
- Test B disease control rating [2, 5]: 68%

Structure (SMILES): CCO/C(=C\Oc1ccc(Cn2cc(C(=O)OC(C)C)cn2)cc1)C(F)(F)F [compound 139]
- Test A disease control rating [1, 4]: 100%
- Test B disease control rating [2, 5]: 0%

Structure (SMILES): CCOC(=O)c1cnn(C(C)c2cccc(O/C=C(\OCC)C(F)(F)F)c2)c1 (stereo not shown) [compound 304]
- Test A disease control rating [1, 3]: 96%
- Test B disease control rating [2, 3]: 0%

Structure (SMILES): CC#CCOC(=O)c1cnn(Cc2cccc(O/C=C(\OCC)C(F)(F)F)c2)c1 [compound 300]
- Test A disease control rating [1, 6]: 100%
- Test B disease control rating [2, 6]: 0%

Structure (SMILES): C=CCNC(=O)c1ccc(O/C=C(\OCC)C(F)(F)F)cc1 [compound 103]
- Test A disease control rating [1, 4]: 0%
- Test B disease control rating [2, 5]: 0%

Structure (SMILES): CCCOC(=O)c1cnn(Cc2ccc(OCC(O)(O)C(F)(F)F)cc2)c1 [compound 42]
- Test A disease control rating [1, 4]: 99%
- Test B disease control rating [2, 5]: 85%

Structure (SMILES): CCOC(=O)c1cnn(COc2ccc(OCC(O)(O)C(F)(F)F)cc2)c1 [Compound 366, ethyl 1-[[4-(3,3,3-trifluoro-2,2-dihydroxypropoxy)phenoxy]methyl]-1H-pyrazole-4-carboxylate]
- pest or weed control at 10 ppm ([1]; Phakopsora pachyrhizi, 10 ppm test suspension, 0 = no control): 79%
- pest or weed control at 10 ppm ([2]; Puccinia recondita, 10 ppm test suspension, 0 = no control): 55%

Structure (SMILES): CCO/C(=C\Oc1ccc(CSC#N)cc1)C(F)(F)F [compound 155]
- Test A disease control rating [1, 4]: 0%
- Test B disease control rating [2, 5]: 0%

Structure (SMILES): CCOC(=O)c1cnn(CCCc2ccc(O/C=C(\OCC)C(F)(F)F)cc2)c1 [compound 294]
- Test A disease control rating [1, 6]: 100%
- Test B disease control rating [2, 6]: 0%

Structure (SMILES): CCOC(=O)c1cnn(CCCc2ccc(OCC(O)(O)C(F)(F)F)cc2)c1 [compound 286]
- Test A disease control rating [1, 6]: 87%
- Test B disease control rating [2, 6]: 55%

Structure (SMILES): CCOC(=O)c1ccn(Cc2ccc(OC)c(O/C=C(\OCC)C(F)(F)F)c2)n1 [compound 407]
- Test A disease control rating [1, 3]: 0%
- Test B disease control rating [2, 3]: 0%

Structure (SMILES): O=C(OCC1CCC1)c1cnn(Cc2ccc(OCC3(C(F)(F)F)OCCO3)cc2)c1 [compound 249]
- Test A disease control rating [1, 4]: 100%
- Test B disease control rating [2, 5]: 0%

Structure (SMILES): CCO/C(=C\Oc1ccc(Cn2ncc3cccnc32)cc1)C(F)(F)F [compound 87]
- Test A disease control rating [1, 4]: 0%
- Test B disease control rating [2, 5]: 0%

Structure (SMILES): CCO/C(=C\Oc1ccc(Cn2cnc(C(=O)OC)c2)cc1)C(F)(F)F [compound 86]
- Test A disease control rating [1, 4]: 99%
- Test B disease control rating [2, 5]: 0%

Structure (SMILES): CCOC(=COc1ccc(Cc2ccnc(OCC[Si](C)(C)C)n2)cc1)C(F)(F)F [compound 313]
- Test A disease control rating [1, 3]: 0%
- Test B disease control rating [2, 3]: 0%

Structure (SMILES): O=C(OCc1ccc(Cl)c(Cl)c1)c1cnn(Cc2ccc(OCC3(C(F)(F)F)OCCO3)cc2)c1 [compound 17]
- Test A disease control rating [1, 4]: 100%
- Test B disease control rating [2, 5]: 0%

Structure (SMILES): CCOC(=O)c1ccnn1Cc1cc(C)cc(O/C=C(\OCC)C(F)(F)F)c1 [compound 462]
- Test A disease control rating [1, 6]: 0%
- Test B disease control rating [2, 6]: 0%

Structure (SMILES): CCOC(=O)C=CCOc1ccc(O/C=C(\OCC)C(F)(F)F)cc1 [compound 96]
- Test A disease control rating [1, 4]: 13%
- Test B disease control rating [2, 5]: 0%

Structure (SMILES): CCOC(=O)c1ccn(Cc2cc(C)cc(O/C=C(\OCC)C(F)(F)F)c2)n1 [compound 405]
- Test A disease control rating [1, 3]: 0%
- Test B disease control rating [2, 3]: 0%

Structure (SMILES): CCO/C(=C\Oc1ccc(C(=O)NC(C)C)cc1)C(F)(F)F [compound 101]
- Test A disease control rating [1, 4]: 0%
- Test B disease control rating [2, 5]: 0%

Structure (SMILES): CCOC(=O)C=CCOc1ccc(OCC(O)(O)C(F)(F)F)cc1 [compound 97]
- Test A disease control rating ([1]; 50 ppm test suspension, soybean seedlings): 94%
- Test B disease control rating ([2]; 50 ppm test suspension, wheat seedlings): 0%

Structure (SMILES): O=C(NCc1ccc(OCC2(C(F)(F)F)OCCO2)cc1)c1cccc(C(F)(F)F)c1 [compound 179]
- Test A disease control rating [1, 4]: 0%
- Test B disease control rating [2, 5]: 0%

Structure (SMILES): CCO/C(=C\Oc1ccc(CN2CCC(C)(C)C2=O)cc1)C(F)(F)F [compound 225]
- Test A disease control rating [1, 4]: 0%
- Test B disease control rating [2, 5]: 0%

Structure (SMILES): CCO/C(=C\Oc1cccc(Cn2cc(C(=O)OCC(C)C)cn2)c1)C(F)(F)F [compound 334]
- Test A disease control rating [1, 6]: 100%
- Test B disease control rating [2, 6]: 0%

Structure (SMILES): CSc1nccc(Cc2ccc(OCC3(C(F)(F)F)OCCO3)cc2)n1 [compound 281]
- Test A disease control rating [1, 3]: 95%
- Test B disease control rating [2, 3]: 98%

Structure (SMILES): O=C(NCC(F)(F)F)c1cnn(Cc2ccc(OCC3(C(F)(F)F)OCCO3)cc2)c1 [compound 197]
- Test A disease control rating [1, 4]: 0%
- Test B disease control rating [2, 5]: 0%

Structure (SMILES): CN(C)C(=O)C1=NOC(c2ccc(OCC(O)(O)C(F)(F)F)cc2)C1 (stereo not shown) [compound 41]
- Test A disease control rating [1, 4]: 92%
- Test B disease control rating [2, 5]: 23%

Structure (SMILES): CCOC(=O)c1cnn(Cc2ccc(O/C=C(\OCC)C(F)(F)F)c(Br)c2)c1 [compound 344]
- Test A disease control rating [1, 3]: 100%
- Test B disease control rating [2, 3]: 0%

Structure (SMILES): C=CCOC(=O)c1cnn(Cc2cccc(O/C=C(\OCC)C(F)(F)F)c2)c1 [compound 333]
- Test A disease control rating [1, 6]: 100%
- Test B disease control rating [2, 6]: 0%

Structure (SMILES): CCOC(=O)c1cnn(CCc2ccc(OCC3(C(F)(F)F)OCCO3)cc2)c1 [compound 133]
- Test A disease control rating [1, 4]: 79%
- Test B disease control rating [2, 5]: 0%

Structure (SMILES): CCO/C(=C\Oc1cccc(Cn2cc(C(=O)OCCCOC)cn2)c1)C(F)(F)F [compound 351]
- Test A disease control rating [1, 6]: 100%
- Test B disease control rating [2, 6]: 0%

Structure (SMILES): CCOC(=O)c1cnn(Cc2ccc(O/C=C(/OCC)C(F)(F)F)cc2)c1 [compound 399]
- pest or weed control at 50 ppm ([1]; Phakopsora pachyrhizi, 50 ppm test suspension, 0 = no control): 97%
- pest or weed control at 50 ppm ([2]; Puccinia recondita, 50 ppm test suspension, 0 = no control): 0%

Structure (SMILES): CCO/C(=C\Oc1ccc(Cn2ccc(C(=O)OC(C)C)n2)cc1)C(F)(F)F [compound 327]
- Test A disease control rating [1, 6]: 100%
- Test B disease control rating [2, 6]: 0%

Structure (SMILES): CCO/C(=C\Oc1ccc(C(=O)OC(C)C)cc1)C(F)(F)F [compound 73]
- Test A disease control rating [1, 4]: 0%
- Test B disease control rating [2, 5]: 0%

Structure (SMILES): CS(=O)(=O)c1nccc(Cc2ccc(OCC3(C(F)(F)F)OCCO3)cc2)n1 [compound 282]
- Test A disease control rating [1, 3]: 0%
- Test B disease control rating [2, 3]: 0%

Structure (SMILES): CON(Cc1ccc(OCC2(C(F)(F)F)OCCO2)cc1)C(=O)C(C)C [compound 235]
- Test A disease control rating [1, 4]: 97%
- Test B disease control rating [2, 5]: 0%

Structure (SMILES): CCOC(=O)c1cnn(Cc2ccc(OCC3(C(F)(F)F)OC(=O)CS3)cc2)c1 (stereo not shown) [compound 20]
- Test A disease control rating [1, 4]: 98%
- Test B disease control rating [2, 5]: 86%

Structure (SMILES): COC(=O)c1cnn(Cc2ccc(OCC3(C(F)(F)F)OCCO3)cc2)c1 [compound 13]
- Test A disease control rating [1, 4]: 99%
- Test B disease control rating [2, 5]: 0%

Structure (SMILES): CCO/C(=C\Oc1cccc(Cn2cc(C(=O)OC(C)C)cn2)c1)C(F)(F)F [compound 332]
- Test A disease control rating [1, 6]: 100%
- Test B disease control rating [2, 6]: 0%

Structure (SMILES): CCO/C(=C\Oc1ccc(CN2OCC(C)(C)C2=O)cc1)C(F)(F)F [compound 92]
- Test A disease control rating [1, 4]: 0%
- Test B disease control rating [2, 5]: 0%

Structure (SMILES): CC(C)C(=O)NCc1ccc(OCC2(C(F)(F)F)OCCO2)cc1 [compound 175]
- Test A disease control rating [1, 4]: 0%
- Test B disease control rating [2, 5]: 0%

Structure (SMILES): CCO/C(=C\Oc1cccc(Cn2cc(C(=O)OCCCCl)cn2)c1)C(F)(F)F [compound 338]
- Test A disease control rating [1, 6]: 100%
- Test B disease control rating [2, 6]: 0%
